Assay results reported in ChEMBL document CHEMBL1201862, “PubChem BioAssay data set” (2004).
The source made the active and inactive calls.

Assays:
A-375 [1] = assay: MITF: Counter assay: A375 proliferation Measured in Cell-Based System Using Plate Reader - 2084-03_Inhibitor_Dose_DryPowder_Activity. [Related pubchem assays (depositor defined):AID488944]; assay type: functional; conditions: Homo sapiens
A-375 [2] = assay: proliferation inhibition in MITF-low A375 cells – cell-based, cherry-pick samples, set 2, counter-screen for MITF modulator project, dose response (AID 540335); assay type: functional; conditions: Homo sapiens
[3] = target: T1, Mannose-6-phosphate isomerase (Homo sapiens, UniProt P34949); assay: phosphomannose isomerase inhibition – biochemical, fluorescence intensity, confirmation (AID 1535)
T1 sequence (P34949 whole entry): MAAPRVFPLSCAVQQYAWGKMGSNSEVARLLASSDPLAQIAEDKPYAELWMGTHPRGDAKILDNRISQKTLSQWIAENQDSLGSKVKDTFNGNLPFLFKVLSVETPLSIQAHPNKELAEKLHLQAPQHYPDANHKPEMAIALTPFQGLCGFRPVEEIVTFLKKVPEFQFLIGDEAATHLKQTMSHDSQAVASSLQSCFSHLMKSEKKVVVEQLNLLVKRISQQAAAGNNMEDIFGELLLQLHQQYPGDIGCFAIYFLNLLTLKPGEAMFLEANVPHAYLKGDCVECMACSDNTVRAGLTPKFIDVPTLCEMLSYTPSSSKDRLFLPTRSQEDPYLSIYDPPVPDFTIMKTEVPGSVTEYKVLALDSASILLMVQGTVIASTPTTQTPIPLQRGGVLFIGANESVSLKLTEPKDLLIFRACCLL

Cytochrome P450 2C19 = Cytochrome P450 2C19 (Homo sapiens, UniProt P33261); assay: Cytochrome panel assay with activity outcomes. Panel member name: p450-cyp2c19 Compounds with AC50 equal or less than 10 uM are considered active; assay type: functional
Sequence of Cytochrome P450 2C19 (P33261 whole entry): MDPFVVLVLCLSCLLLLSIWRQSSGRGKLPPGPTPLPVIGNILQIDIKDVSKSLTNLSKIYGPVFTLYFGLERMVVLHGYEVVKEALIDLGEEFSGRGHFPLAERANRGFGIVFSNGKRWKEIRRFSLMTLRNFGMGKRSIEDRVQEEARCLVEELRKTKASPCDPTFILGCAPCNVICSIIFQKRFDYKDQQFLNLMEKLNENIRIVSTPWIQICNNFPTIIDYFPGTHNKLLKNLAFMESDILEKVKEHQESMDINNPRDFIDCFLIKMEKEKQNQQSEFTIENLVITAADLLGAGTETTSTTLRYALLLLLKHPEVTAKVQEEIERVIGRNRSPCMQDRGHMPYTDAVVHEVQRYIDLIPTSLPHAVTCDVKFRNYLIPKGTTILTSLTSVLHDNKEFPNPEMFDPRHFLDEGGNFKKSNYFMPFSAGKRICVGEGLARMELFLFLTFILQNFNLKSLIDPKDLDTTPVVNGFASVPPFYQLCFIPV

Cytochrome P450 2D6 = Cytochrome P450 2D6 (Homo sapiens, UniProt P10635);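 further: CYP2D6 member of a cytochrome P450 panel assay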
Sequence of Cytochrome P450 2D6 (P10635 whole entry): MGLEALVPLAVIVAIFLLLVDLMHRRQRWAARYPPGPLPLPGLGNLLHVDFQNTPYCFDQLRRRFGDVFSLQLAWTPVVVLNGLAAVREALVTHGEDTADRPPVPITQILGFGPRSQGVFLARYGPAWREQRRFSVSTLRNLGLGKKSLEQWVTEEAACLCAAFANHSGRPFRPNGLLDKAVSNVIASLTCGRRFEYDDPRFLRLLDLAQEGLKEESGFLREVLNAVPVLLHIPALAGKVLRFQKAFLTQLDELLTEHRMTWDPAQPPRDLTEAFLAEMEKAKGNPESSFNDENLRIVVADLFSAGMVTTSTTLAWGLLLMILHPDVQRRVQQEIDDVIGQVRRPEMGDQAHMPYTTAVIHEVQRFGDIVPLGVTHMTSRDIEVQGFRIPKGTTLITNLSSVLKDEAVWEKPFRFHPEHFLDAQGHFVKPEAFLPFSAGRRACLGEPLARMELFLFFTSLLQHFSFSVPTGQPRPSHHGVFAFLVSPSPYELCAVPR

Cytochrome P450 3A4 [4] = target: T2, Cytochrome P450 3A4 (Homo sapiens, UniProt P08684);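 further: CYP3A4 tested as one member of a cytochrome P450 panel screen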
T2 sequence (P08684 whole entry): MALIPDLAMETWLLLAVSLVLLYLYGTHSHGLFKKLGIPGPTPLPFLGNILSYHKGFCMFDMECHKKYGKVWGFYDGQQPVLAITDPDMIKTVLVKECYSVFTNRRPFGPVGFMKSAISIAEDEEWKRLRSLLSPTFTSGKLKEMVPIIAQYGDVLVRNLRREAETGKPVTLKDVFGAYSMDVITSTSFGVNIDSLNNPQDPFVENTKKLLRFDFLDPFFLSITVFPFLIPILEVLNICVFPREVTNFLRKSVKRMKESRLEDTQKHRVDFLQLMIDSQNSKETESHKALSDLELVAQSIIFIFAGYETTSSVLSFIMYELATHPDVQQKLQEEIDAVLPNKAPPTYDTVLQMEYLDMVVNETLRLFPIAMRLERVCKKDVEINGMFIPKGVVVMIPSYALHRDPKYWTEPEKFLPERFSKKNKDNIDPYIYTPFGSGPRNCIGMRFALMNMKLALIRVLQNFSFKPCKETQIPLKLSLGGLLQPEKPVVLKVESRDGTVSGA

Escherichia coli = assay: microbe, parasite or virus in culture
[5] = target: Glucose-6-phosphate 1-dehydrogenase (Homo sapiens, UniProt P11413); assay: inhibition of Homo sapiens G6PD, dose series – biochemical, fluorescence, selectivity assay for P. falciparum G6PD inhibitor project, dose response (AID 504792); assay type: functional
Sequence of Glucose-6-phosphate 1-dehydrogenase (P11413 whole entry): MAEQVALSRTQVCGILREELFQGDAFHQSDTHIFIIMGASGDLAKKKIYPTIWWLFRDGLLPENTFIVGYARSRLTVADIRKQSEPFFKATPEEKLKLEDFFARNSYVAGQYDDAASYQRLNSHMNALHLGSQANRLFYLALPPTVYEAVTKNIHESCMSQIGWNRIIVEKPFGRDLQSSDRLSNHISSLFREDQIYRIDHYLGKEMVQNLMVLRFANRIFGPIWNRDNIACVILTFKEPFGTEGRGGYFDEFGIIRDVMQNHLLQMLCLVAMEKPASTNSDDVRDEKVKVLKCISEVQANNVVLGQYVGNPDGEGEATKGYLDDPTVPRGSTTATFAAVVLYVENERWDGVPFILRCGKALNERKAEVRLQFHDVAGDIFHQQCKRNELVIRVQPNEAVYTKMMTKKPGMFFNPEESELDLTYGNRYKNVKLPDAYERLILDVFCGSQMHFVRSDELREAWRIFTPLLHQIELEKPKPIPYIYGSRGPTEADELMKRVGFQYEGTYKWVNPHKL

[6] = target: UDP-galactopyranose mutase (Mycobacterium tuberculosis, UniProt P9WIQ1); assay: Inhibitors of Mycobacterium tuberculosis UDP-galactopyranose mutase (UGM) enzyme Measured in Biochemical System Using Plate Reader - 2105-02_Inhibitor_Dose_CherryPick_Activity. [Related pubchem assays (depositor defined):AID504439]
Sequence of UDP-galactopyranose mutase (P9WIQ1 whole entry): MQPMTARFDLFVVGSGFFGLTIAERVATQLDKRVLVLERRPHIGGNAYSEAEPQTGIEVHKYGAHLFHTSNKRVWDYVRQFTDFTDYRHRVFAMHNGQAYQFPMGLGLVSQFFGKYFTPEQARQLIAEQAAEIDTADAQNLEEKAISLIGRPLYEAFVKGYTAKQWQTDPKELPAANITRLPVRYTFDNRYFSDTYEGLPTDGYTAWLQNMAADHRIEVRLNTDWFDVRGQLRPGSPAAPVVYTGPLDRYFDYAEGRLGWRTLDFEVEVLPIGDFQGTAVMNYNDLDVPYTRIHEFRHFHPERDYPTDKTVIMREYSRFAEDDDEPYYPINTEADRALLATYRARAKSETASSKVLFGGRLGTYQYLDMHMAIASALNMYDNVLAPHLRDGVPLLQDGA

[7] = target: T3, Corticotropin-releasing factor receptor 2/Corticotropin-releasing factor-binding protein (Homo sapiens, UniProt P24387+Q13324); assay: activators of CRF receptor 2 with binding protein – uHTS hits, confirmation (AID 602473); assay type: functional; conditions: read-out: EC50_Mean
T3 sequence (Q13324 whole entry): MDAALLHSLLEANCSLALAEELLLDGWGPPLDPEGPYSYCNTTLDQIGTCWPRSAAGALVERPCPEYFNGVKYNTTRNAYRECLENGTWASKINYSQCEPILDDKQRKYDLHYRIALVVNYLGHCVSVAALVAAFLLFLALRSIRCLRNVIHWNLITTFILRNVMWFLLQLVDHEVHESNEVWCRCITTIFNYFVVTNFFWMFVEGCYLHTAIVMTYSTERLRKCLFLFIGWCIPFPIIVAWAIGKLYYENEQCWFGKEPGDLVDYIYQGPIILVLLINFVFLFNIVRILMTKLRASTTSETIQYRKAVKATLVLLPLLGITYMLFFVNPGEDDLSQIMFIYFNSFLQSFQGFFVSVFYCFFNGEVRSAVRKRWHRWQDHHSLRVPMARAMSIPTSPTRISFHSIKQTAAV
T3 sequence (P24387 whole entry): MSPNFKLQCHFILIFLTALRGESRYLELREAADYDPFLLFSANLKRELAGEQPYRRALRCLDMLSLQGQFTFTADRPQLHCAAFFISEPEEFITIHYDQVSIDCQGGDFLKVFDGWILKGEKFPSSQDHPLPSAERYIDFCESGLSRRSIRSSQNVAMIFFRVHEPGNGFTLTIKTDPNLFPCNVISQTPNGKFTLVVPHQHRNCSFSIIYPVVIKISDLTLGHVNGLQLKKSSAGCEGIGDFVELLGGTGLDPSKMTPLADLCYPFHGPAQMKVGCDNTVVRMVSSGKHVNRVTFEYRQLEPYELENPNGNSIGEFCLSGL

[8] = viability inhibitors of stage V gametocytes – luminescence, dose response (AID 1117278); assay type: functional, cell-based;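 further: gametocytes exposed to compound for 24 hours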
[9] = viability loss in human Jurkat cells – cell-based, luminescence, cytotoxicity control for P. falciparum gametocyte viability project, dose response (AID 1117277); assay type: functional;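 further: potency reflects loss of cellular ATP meaning fewer viable cells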
Beta-lactamase [10] = target: Beta-lactamase (Pseudomonas aeruginosa, UniProt Q79MP6);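 further: biochemical dose-response test of metallo-beta-lactamase enzyme inhibition, read out by epi-absorbance; purified recombinant IMP-1 metallo-beta-lactamase with nitrocefin as substrate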
Sequence of Beta-lactamase (Pseudomonas aeruginosa, UniProt Q79MP6) (Q79MP6 whole entry): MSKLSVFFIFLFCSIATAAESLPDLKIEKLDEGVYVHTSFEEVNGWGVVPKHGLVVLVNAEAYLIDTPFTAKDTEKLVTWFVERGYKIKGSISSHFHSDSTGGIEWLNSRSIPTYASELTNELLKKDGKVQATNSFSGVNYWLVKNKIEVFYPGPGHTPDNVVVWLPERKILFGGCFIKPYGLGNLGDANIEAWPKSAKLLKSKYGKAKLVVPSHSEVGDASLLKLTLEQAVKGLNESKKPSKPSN

Beta-lactamase [11] = target: Beta-lactamase (Salmonella choleraesuis (strain SC-B67), UniProt Q5J463)
Sequence of Beta-lactamase (Salmonella choleraesuis (strain SC-B67), UniProt Q5J463) (Q5J463 whole entry): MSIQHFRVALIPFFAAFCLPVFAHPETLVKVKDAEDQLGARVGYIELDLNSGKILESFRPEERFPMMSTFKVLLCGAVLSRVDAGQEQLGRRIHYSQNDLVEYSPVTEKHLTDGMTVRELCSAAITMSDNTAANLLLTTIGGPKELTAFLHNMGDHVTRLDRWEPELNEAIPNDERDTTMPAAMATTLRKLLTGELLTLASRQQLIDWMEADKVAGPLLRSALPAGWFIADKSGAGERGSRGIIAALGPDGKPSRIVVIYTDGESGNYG

HeLa [12] = assay: viability loss in HeLa cells – cell-based, 24 h, cherry-picked samples, cytotoxicity control, dose response (AID 504726); assay type: functional; conditions: Homo sapiens;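 further: potency for cytotoxicity as loss of luminescence signal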
ORF 73 = ORF 73 (Human herpesvirus 8, UniProt O40947); assay: KSHV LANA DNA-binding disruption – biochemical, fluorescence polarization, cherry-picked samples, dose response (AID 504725); design: species or system Human gammaherpesvirus 8;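 further: fluorescence polarization of a labeled DNA duplex reporting LANA DNA binding; potency is for inhibitors that block LANA binding to the DNA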
Sequence of ORF 73 (O40947 whole entry): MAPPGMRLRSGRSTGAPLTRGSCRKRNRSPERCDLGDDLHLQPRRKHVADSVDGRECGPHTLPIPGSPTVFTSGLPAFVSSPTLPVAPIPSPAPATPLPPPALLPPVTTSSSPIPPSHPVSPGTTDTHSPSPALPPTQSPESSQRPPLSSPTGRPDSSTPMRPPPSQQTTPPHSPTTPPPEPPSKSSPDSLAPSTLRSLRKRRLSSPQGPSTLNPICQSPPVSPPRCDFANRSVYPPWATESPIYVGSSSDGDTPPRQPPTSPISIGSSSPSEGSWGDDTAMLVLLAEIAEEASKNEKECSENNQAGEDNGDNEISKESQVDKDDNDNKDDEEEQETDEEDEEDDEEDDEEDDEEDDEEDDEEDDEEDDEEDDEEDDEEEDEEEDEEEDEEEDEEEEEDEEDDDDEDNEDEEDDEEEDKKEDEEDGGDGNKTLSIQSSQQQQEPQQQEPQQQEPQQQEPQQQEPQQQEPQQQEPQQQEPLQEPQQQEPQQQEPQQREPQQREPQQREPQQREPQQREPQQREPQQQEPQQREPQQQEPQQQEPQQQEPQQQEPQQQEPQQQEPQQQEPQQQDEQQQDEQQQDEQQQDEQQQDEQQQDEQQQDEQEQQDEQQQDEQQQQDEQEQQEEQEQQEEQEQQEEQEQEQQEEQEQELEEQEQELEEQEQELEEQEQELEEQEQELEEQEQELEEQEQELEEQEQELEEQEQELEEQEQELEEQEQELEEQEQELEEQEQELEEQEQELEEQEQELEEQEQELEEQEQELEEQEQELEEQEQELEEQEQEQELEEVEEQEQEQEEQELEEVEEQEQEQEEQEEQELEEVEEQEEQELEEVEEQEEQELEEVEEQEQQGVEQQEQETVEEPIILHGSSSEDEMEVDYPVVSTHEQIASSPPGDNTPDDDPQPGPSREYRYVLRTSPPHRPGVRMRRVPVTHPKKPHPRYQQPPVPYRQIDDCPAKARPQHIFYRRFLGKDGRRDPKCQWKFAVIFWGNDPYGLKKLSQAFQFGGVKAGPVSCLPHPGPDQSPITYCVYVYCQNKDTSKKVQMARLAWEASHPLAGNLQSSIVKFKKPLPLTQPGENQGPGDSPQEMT

Estrogen receptor = target: T4, Estrogen receptor (Homo sapiens, UniProt P03372);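 further: potency for inhibiting coactivator peptide recruitment to the receptor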
T4 sequence (P03372 whole entry): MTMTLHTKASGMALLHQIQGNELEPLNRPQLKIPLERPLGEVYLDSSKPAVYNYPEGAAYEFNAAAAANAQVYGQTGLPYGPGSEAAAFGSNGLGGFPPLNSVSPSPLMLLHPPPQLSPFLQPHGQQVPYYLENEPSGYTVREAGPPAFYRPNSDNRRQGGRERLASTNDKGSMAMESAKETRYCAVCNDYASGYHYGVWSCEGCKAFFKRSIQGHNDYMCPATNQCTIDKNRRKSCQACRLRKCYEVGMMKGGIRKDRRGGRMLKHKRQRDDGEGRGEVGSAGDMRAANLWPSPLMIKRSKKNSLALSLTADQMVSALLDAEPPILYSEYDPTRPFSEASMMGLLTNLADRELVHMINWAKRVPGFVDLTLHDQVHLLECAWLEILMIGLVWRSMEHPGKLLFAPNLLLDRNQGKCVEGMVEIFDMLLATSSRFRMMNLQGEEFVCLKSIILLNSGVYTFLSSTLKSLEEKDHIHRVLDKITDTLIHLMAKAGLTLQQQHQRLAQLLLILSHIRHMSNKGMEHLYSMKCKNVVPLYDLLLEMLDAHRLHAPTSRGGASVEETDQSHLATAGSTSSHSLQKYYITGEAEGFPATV

Estrogen receptor beta = Estrogen receptor beta (Homo sapiens, UniProt Q92731); assay: blockers of SRC-3 recruitment to ERβ – biochemical, ELISA, streptavidin-HRP readout, orthogonal assay, confirmation (AID 1060)
Sequence of Estrogen receptor beta (Q92731 whole entry): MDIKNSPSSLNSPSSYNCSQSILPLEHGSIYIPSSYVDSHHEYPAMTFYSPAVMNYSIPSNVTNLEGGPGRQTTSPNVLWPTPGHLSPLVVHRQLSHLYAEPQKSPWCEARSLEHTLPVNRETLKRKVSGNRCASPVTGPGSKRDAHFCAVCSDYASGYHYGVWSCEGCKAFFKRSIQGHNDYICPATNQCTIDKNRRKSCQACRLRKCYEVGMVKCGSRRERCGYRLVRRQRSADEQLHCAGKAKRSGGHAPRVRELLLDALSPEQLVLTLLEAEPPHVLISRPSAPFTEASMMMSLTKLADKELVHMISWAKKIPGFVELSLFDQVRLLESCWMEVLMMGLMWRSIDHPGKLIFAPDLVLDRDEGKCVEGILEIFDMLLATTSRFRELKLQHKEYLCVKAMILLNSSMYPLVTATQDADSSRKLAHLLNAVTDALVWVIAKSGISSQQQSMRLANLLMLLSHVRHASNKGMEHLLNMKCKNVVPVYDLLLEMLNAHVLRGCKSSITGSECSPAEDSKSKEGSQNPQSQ

[13] = target: Induced myeloid leukemia cell differentiation protein Mcl-1 (Homo sapiens, UniProt Q07820); assay type: functional
Sequence of Induced myeloid leukemia cell differentiation protein Mcl-1 (Q07820 whole entry): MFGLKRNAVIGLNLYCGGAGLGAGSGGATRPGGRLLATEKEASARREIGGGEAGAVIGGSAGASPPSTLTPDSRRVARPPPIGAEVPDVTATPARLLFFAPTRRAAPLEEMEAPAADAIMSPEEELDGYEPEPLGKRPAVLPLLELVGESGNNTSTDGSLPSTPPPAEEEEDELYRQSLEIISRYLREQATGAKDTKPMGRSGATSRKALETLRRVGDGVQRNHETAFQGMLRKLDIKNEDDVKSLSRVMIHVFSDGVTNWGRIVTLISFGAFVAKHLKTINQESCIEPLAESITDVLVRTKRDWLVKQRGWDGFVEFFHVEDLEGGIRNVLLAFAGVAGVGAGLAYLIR

[14] = target: DNA dC->dU-editing enzyme APOBEC-3A (Homo sapiens, UniProt P31941); assay: Dose Response confirmation of small molecule APOBEC3A DNA Deaminase Inhibitors via a fluorescence-based single-stranded DNA deaminase assay. [Related pubchem assays (depositor defined):AID493011, AID493024]; assay type: functional
[15] = target: DNA dC->dU-editing enzyme APOBEC-3G (Homo sapiens, UniProt Q9HC16); assay type: functional;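 further: Dose-response counterscreen measuring inhibition of APOBEC3G DNA deaminase activity, run while confirming APOBEC3A inhibitors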
[16] = target: T5, Carboxy-terminal domain RNA polymerase II polypeptide A small phosphatase 1 (Homo sapiens, UniProt Q9GZU7); assay: CTDSP1 inhibitors, concentration-response, biochemical, absorbance readout, ultra-high-throughput screen actives (AID 540297); assay type: functional
T5 sequence (Q9GZU7 whole entry): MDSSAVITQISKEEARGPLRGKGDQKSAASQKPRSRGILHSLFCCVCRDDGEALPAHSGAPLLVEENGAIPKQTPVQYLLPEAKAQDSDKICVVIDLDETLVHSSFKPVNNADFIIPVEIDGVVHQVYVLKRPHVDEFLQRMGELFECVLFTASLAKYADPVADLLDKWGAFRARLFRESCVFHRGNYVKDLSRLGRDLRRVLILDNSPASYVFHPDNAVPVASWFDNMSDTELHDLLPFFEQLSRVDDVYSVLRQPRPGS

Cytochrome P450 1A2 = target: T6, Cytochrome P450 1A2 (Homo sapiens, UniProt P05177);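 further: PubChem cytochrome P450 panel assay, CYP1A2 panel member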
T6 sequence (P05177 whole entry): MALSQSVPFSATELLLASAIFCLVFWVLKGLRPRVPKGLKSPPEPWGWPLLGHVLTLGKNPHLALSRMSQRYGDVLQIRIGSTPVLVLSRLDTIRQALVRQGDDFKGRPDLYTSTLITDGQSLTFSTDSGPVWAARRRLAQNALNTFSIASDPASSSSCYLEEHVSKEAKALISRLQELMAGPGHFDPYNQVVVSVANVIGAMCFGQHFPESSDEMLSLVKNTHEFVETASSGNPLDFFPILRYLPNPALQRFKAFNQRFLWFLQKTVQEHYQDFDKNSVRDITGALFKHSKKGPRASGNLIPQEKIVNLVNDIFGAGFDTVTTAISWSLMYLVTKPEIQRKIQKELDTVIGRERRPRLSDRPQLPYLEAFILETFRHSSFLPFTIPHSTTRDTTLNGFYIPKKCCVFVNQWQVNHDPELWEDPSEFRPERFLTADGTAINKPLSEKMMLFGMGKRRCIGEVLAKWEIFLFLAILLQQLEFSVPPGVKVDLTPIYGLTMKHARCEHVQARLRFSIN

Cytochrome P450 3A4 [17] = target: T2, Cytochrome P450 3A4; remark: listed apart in the source
[18] = target: T7, Type-1 angiotensin II receptor (Homo sapiens, UniProt P30556); assay: agonist activity at AGTR1 – cell-based, uHTS hits, selectivity assay for APJ receptor agonist project, dose response (AID 488865); assay type: functional;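 further: beta-arrestin recruitment to AT1 measured by enzyme fragment complementation luminescence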
T7 sequence (P30556 whole entry): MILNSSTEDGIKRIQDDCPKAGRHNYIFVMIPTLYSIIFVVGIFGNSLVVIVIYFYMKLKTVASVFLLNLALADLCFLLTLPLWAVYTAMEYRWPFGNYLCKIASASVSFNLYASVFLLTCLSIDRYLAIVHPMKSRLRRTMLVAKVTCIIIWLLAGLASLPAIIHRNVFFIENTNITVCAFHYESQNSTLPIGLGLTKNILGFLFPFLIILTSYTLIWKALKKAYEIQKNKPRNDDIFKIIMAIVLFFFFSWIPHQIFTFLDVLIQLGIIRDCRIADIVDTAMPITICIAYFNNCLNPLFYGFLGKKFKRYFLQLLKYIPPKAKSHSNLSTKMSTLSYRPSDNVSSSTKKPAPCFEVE

HeLa [19] = assay: ATP-based viability loss in HeLa cells – cell-based, CellTiter-Glo luminescence, cherry-pick samples, cytotoxicity control for MITF activator project, dose response (AID 540259); assay type: functional; conditions: Homo sapiens
[20] = target: T1, Mannose-6-phosphate isomerase; assay: MPI inhibition at elevated mannose 6-phosphate – biochemical, fluorescence intensity, high mannose 6-phosphate, primary screen (AID 1220)

Cc1ccc(NC(=O)Nc2ccccc2)nc1
AC50 (A-375 [1]): > 35 µM (active)
AC50 (A-375 [2]): > 35 µM (active)

CCOC(=O)c1nnc(/N=c2\ssnc2Cl)o1
IC50 [3]: 32.5 µM (active)

C=C(C)CNCC(=C)C.Oc1c(Cl)c(Cl)c(Cl)c(Cl)c1Cl
AC50 (Cytochrome P450 2C19): inconclusive
AC50 (Cytochrome P450 2D6): inactive
AC50 (Cytochrome P450 3A4 [4]): inactive

COc1c2ccoc2nc2c(OC)c(OC[C@@H](O)C(C)(C)O)ccc12
AC50 (Escherichia coli): 54.2 µM (active)

CC(=O)O.CN1CCN(CN2C(=O)C3C4C=CC(C3C2=O)C2C3C(=O)N(CN5CCN(C)CC5)C(=O)C3C42)CC1 (configuration not stated)
AC50 (Cytochrome P450 2D6): inconclusive

Cc1ccc(-c2nn(C)c(=O)c3ccccc23)cc1CNC(=O)/C=C/c1ccccc1
IC50 [5]: 49.5 µM (inactive)

O=C(NCc1ccc(OC(F)(F)F)cc1)c1cccc2c1C(=O)c1ccc(N3CCCCC3)cc1S2(=O)=O
AC50 [6]: 7.54 µM (active)
EC50 [7]: 6.58 µM (active)
IC50 [8]: > 109 µM (inactive)
IC50 [9]: > 83.3 µM (inactive)

Cc1nn(C)c(C)c1N1C(=O)c2cccc3c(N)ccc(c23)C1=O
IC50 (Beta-lactamase [10]): 9.3 µM (active)
IC50 (Beta-lactamase [11]): 5.25 µM (active)
AC50 (HeLa [12]): 264 µM (active)
AC50 (ORF 73): 0.81 µM (active)
AC50 [6]: 1.39 µM (active)

O=C(Cc1ccc(S(=O)(=O)N2CCOCC2)s1)Nc1nc2c(s1)CCCC2
IC50 (Estrogen receptor): 4.69 µM (active)
IC50 (Estrogen receptor beta): 5.27 µM (not active)
IC50 [13]: 4.44 µM (active)
IC50 [14]: 10.5 µM (active)
IC50 [15]: 33.7 µM (active)
IC50 [16]: 3.2 µM (active)
AC50 (Cytochrome P450 1A2): 28.2 µM (inconclusive)
AC50 (Cytochrome P450 3A4 [17]): 14.1 µM (inconclusive)

COc1ccccc1-n1c(O)cc(=O)nc1SC
EC50 [18]: > 100 µM (inactive)

COc1ccccc1N1CCN(/N=C/c2cccc(Cl)c2)CC1
AC50 (A-375 [1]): > 35 µM (active)
AC50 (HeLa [19]): 161 µM (active)
AC50 (A-375 [2]): > 35 µM (active)

C=CCSc1nc2sc3c(c2c(=O)n1CC)CCc1ccccc1-3
IC50 [20]: 13.5 µM (active)
IC50 [5]: > 80 µM (inactive)
